Measurements as given in BigSolDB 2.1.

Conditions: in water

N[C@@H](CCC(=O)N[C@@H](CS)C(=O)NCC(=O)O)C(=O)O
Conditions | solubility (mole fraction)
278.15 K | 0.00427
283.15 K | 0.00519
288.15 K | 0.00659
293.15 K | 0.00792
298.15 K | 0.00936
303.15 K | 0.0115
308.15 K | 0.0139
313.15 K | 0.0169
318.15 K | 0.0202
